According to ChEMBL document CHEMBL1201862, “PubChem BioAssay data set” (2004):
The source made the active and inactive calls.

Assays:
[1] = biological target: T1, Dual specificity protein phosphatase 6 (Rattus norvegicus, UniProt Q64346); assay type: functional
T1 sequence (Q64346 whole entry): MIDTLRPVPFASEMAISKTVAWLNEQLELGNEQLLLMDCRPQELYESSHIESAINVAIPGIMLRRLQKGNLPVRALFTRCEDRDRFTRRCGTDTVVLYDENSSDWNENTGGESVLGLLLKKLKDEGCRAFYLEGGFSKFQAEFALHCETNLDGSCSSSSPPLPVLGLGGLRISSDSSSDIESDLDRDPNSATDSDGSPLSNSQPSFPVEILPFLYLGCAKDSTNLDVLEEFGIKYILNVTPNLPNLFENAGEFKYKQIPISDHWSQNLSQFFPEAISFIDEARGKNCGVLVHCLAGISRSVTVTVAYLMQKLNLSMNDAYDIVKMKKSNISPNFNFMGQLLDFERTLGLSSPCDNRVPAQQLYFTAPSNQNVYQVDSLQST

[2] = biological target: T1, Dual specificity protein phosphatase 6
[3] = biological target: Glyceraldehyde-3-phosphate dehydrogenase (Homo sapiens, UniProt P04406)
[4] = biological target: T2, Tyrosine-protein phosphatase non-receptor type 7 (Homo sapiens, UniProt P35236); assay type: functional
T2 sequence (P35236 whole entry): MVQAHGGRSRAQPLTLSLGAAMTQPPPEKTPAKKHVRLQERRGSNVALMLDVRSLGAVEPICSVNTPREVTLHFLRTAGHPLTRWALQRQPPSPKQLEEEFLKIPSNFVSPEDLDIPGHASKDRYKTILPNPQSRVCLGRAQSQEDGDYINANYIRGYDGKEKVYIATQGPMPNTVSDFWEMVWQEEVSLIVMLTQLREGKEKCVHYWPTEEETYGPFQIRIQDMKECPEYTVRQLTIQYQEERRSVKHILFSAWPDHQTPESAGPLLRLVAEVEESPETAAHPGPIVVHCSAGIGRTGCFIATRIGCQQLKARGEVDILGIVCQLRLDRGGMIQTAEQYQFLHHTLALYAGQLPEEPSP

[5] = biological target: Glucose-6-phosphate 1-dehydrogenase (Homo sapiens, UniProt P11413); test: inhibition of Homo sapiens G6PD, dose series – biochemical, fluorescence, selectivity assay for P. falciparum G6PD inhibitor project, dose response (AID 504792); assay type: functional
[6] = biological target: T3, Calpain-2 catalytic subunit (Sus scrofa, UniProt P43367); test: m-calpain protease blockers, concentration series – biochemical, fluorogenic peptide substrate, dose response (AID 1420); assay type: functional
T3 sequence (P43367 whole entry): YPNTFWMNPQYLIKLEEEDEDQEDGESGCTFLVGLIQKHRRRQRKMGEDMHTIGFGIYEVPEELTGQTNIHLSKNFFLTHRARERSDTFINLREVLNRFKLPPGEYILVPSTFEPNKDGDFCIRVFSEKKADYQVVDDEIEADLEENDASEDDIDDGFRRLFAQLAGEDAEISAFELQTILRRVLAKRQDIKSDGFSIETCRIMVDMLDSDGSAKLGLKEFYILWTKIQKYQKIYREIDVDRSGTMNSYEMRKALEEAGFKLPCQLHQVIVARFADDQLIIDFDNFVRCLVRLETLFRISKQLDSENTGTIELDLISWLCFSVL

HEK293 [7] = test: cells; details: Homo sapiens
HEK293 [8] = test: cells; details: Homo sapiens; remark: listed apart in the source
Mu-type opioid receptor = Mu-type opioid receptor (Homo sapiens, UniProt P35372); test: (§1) Counterscreen for agonists of heterodimerization of the mu 1 (OPRM1) and delta 1 (OPRD1) opioid receptors: Luminescence-based cell-based high throughput dose response assay to identify agonists of OPRM1 homodimerization.; assay type: functional
[9] = biological target: 5-hydroxytryptamine receptor 5A (Homo sapiens, UniProt P47898); test: Counterscreen for agonists of OPRM1-OPRD1 heterodimerization: luminescence-based cell-based high throughput dose response assay to identify agonists of 5-hydroxytryptamine (serotonin) 5A receptor (HTR5A). [Related pubchem assays (depositor defined):AID504326, AID504355, AID504692, AID504904, AID504905]; assay type: functional
[10] = biological target: T4, Short transient receptor potential channel 4 (Mus musculus, UniProt Q9QUQ5); test: calcium entry via TRPC4 opening agents – cell-based, HEK293 TRPC4/mu-opioid, Fluo-4 calcium, dose response (AID 434937); assay type: functional
T4 sequence (Q9QUQ5 whole entry): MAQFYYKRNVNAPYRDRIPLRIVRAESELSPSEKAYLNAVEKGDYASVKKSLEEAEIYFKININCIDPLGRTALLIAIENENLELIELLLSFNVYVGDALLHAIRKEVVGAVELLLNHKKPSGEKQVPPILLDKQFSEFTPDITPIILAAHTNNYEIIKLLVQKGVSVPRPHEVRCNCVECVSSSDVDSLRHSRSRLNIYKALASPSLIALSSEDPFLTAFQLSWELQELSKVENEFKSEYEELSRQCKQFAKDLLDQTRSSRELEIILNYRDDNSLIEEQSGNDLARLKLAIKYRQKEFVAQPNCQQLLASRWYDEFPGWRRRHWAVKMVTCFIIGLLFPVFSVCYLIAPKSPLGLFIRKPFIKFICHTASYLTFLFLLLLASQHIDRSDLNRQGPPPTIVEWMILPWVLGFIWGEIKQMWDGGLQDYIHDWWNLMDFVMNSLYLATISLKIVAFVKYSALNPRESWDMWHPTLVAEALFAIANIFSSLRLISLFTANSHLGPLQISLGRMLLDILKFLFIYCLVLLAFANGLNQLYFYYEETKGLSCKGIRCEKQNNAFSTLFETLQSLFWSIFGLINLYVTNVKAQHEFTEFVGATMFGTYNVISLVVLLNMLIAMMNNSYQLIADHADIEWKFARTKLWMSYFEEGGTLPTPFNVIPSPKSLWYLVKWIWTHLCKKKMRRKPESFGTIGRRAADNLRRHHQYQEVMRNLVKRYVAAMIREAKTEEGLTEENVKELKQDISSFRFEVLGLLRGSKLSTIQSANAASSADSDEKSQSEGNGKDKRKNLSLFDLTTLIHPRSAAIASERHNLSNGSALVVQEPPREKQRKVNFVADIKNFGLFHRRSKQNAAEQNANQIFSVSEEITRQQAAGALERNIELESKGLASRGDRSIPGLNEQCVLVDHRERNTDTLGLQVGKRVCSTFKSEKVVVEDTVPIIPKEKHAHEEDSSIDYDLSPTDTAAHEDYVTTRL

[11] = biological target: Delta-type opioid receptor (Homo sapiens, UniProt P41143); test: as §1, with “of OPRD1” for “of OPRM1”, “homodimerization. [Related pubchem assays (depositor defined):AID504326, AID504355, AID504692, AID504904, AID504905]” for “homodimerization.”; assay type: functional
HeLa = test: ATP-based viability loss in HeLa cells – cell-based, CellTiter-Glo luminescence, cherry-pick samples, cytotoxicity control for MITF activator project, dose response (AID 540259); assay type: functional; details: Homo sapiens

Chain of Glucose-6-phosphate 1-dehydrogenase (P11413 whole entry): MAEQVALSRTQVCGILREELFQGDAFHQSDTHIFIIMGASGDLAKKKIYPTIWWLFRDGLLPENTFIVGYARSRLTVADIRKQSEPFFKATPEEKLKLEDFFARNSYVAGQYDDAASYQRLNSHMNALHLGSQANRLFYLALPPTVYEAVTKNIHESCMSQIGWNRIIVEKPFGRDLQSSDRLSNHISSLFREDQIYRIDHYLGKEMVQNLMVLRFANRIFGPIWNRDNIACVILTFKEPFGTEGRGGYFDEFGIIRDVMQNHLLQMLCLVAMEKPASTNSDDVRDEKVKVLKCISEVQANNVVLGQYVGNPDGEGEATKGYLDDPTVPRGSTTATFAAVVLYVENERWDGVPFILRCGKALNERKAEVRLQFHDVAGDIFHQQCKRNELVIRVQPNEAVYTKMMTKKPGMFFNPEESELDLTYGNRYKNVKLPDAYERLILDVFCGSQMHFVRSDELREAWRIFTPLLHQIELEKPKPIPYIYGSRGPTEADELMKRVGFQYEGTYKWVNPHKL
Chain of Delta-type opioid receptor (P41143 whole entry): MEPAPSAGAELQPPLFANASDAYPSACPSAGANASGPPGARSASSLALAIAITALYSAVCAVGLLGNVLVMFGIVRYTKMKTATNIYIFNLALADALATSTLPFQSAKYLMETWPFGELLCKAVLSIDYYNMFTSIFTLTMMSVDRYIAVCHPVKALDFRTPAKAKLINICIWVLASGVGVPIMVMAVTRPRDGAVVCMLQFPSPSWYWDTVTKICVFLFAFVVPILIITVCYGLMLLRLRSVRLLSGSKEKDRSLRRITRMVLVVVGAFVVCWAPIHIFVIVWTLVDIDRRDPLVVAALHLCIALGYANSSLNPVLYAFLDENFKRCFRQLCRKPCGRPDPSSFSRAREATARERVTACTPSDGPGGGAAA
Chain of Glyceraldehyde-3-phosphate dehydrogenase (P04406 whole entry): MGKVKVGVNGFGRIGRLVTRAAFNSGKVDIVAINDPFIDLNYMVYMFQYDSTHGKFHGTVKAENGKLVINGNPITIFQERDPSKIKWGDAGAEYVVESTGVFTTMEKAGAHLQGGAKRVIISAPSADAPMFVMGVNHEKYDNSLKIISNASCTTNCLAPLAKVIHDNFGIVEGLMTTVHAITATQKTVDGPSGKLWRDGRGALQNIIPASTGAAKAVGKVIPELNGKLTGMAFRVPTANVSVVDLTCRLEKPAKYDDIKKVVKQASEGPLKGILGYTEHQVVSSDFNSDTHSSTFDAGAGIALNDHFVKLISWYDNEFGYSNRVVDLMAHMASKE
Chain of Mu-type opioid receptor (P35372 whole entry): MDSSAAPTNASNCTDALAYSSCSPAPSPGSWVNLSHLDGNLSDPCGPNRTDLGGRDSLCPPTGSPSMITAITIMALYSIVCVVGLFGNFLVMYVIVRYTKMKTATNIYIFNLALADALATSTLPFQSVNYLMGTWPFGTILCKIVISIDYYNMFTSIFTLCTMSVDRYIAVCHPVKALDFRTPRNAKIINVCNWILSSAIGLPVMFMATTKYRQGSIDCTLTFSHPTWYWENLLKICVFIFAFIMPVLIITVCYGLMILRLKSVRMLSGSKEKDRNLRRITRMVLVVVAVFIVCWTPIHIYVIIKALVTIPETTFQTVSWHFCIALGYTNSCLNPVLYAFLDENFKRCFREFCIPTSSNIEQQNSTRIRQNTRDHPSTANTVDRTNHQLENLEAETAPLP
Chain of 5-hydroxytryptamine receptor 5A (P47898 whole entry): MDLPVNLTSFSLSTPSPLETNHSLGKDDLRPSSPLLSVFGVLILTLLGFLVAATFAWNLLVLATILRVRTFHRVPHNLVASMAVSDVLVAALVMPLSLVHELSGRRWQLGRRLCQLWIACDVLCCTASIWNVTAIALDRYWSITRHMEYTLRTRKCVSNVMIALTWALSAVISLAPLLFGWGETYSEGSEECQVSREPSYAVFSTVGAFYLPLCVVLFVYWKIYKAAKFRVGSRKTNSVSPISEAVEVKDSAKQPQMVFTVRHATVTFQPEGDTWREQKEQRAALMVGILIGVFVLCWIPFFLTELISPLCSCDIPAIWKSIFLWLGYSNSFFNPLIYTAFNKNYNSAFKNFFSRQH

Cn1c(=O)n(-c2ccccc2)c(=O)n([C@@H](Cc2ccccc2)C(N)=O)c1=O
IC50 [1]: > 100 µM (inactive) | IC50 [2]: > 100 µM (inactive) | IC50 [3]: > 100 µM (not active) | IC50 [4]: > 100 µM (not active)

CCOc1ccc(N(CC(=O)N/N=C/c2cc([N+](=O)[O-])ccc2Cl)S(C)(=O)=O)cc1
IC50 [5]: > 80 µM (inactive)

Cn1c(=O)n(C)c2cc(S(=O)(=O)N3CCCc4ccccc43)ccc21
IC50 [6]: 7.05 µM (not active) | EC50 (HEK293 [7]): > 59.6 µM (inactive) | EC50 (HEK293 [8]): > 59.6 µM (inactive)

COc1ccc(C(CNC(=O)CSc2ccccc2C)N(C)C)cc1 (stereo not drawn)
EC50 (Mu-type opioid receptor): > 92.5 µM (inactive) | EC50 [9]: > 92.5 µM (inactive) | EC50 [10]: 0.237 µM (active) | EC50 [11]: > 92.5 µM (inactive)

COc1ccc(-c2nnc(-c3ccc4ccccc4c3)o2)cc1
AC50 (HeLa): > 350 µM (inactive)
